Test system: MMP1 (collagénase interstitielle humaine)
Experiment: Amount of MMP-1 produced by PMA-stimulated fibroblasts (ELISA)
Assay type: cell-based, humains
Conditions: for inhibition at 0.04 %: ganoderic acids 0.04 %, versus témoin + PMA, read-out: diminution de la quantité MMP1; for activity at 0.04 %: read-out: % témoin +PMA; for MMP1 (ng/ml): 4 h pre-incubation, +PMA 0.1 µg/ml
Description: Les essais figurant au tableau 2 ci-après concernent la régulation d'une enzyme, la MMP1 (collagénase interstitielle humaine) appartenant aux métalloprotéinases, de la famille des protéases, enzymes dégradant la matrice extra-cellulaire, la MMP1 dégradant particulièrement le collagène natif.
Les essais, dont les résultats figurent au tableau 2, ont donc consisté à comparer l'activité de la DHEA et des acides ganodériques B, C2 et G sur la régulation de l'activité de la MMP1 après stimulation des fibroblastes par PMA.
• Fibroblastes humains normaux profonds (type R2Ad2), utilisé au 2e passage. • Culture: 37° C, 5 % CO2 • Milieu de croissance : milieu Tebu PM-1 • Milieu d'essai : DMEM/HAMF10, vol/vol (Invitrogen 21969035 / Invitrogen 31550-023) • Hepes 15 mM (Invitrogen 1563-056) • L-glutamine 2 mM (Invitrogen 25030024) • pénicilline 50 UI/ml streptomycine 50 µg/ml (Invitrogen 15070063) • sans sérum de veau foetal
• solution stock : 10 % dans l'éthanol puis dilution à 0.1 % dans une solution de BSA délipidée à 5 mg/ml final • dilutions : en milieu de culture stérile • concentration finale testée: 0.001 % (50 µg/ml BSA 1^e conc, final) Acide Ganodérique B • solution stock : 10 % en DMSO • dilutions : en milieu de culture stérile • concentration finale testée: 0.04 % (50 µg/ml BSA final) Acide Ganodérique C2 • solution stock : 10 % en DMSO • dilutions : en milieu de culture stérile • concentration finale testée: 0.04 % (50 µg/ml BSA final) Acide Ganodérique G • solution stock : 10 % en DMSO • dilutions : en milieu de culture stérile • concentration finale testée: 0.04 % (50 µg/ml BSA final)
Les cellules ont été ensemensées à 17000 cellules par puits, en plaques 96 puits, une plaque pour chaque temps de culture. Toutes les conditions en triplicata (3 puits de culture). Les cellules ont été pré-cultivées pendant 24 h en milieu sans SVF. Après 24 h de pré-culture, les milieux ont été remplacés par un milieu équivalent contenant) les produits à l'essai ou non (contrôles) ou la DHEA à 0.001 %. Après 4 h d'incubation, une solution 10 fois concentrée de « phorbol myristate acétate » (PMA, Sigma, 0.1 µg/ml final) a été ajoutée ou non (contrôles) et les cellules ont été cultivées pendant 6 h supplémentaires.
A la fin de chaque temps de culture, les milieux de culture ont été récupérés et congelés à -80 °C pour dosage de la quantité de MMP-1 et la viabilité des tapis cellulaires a été contrôlée en utilisant un test standard de réduction du MTT.
Le dosage de MMP-1 (collagénase interstitielle humaine) a été réalisé par ELISA, à l'aide d'un kit « BIOTRACK human MMP-1, ELISA system, Amersham RPN2610 », selon les directives du fournisseur.
Résumé des conditions testées : • Modèle : fibroblastes humains • Test : dosage quantité de MMP-1 produite (protéine, ELISA) • Milieux : sans sérum • Tests : produits à l'essai, DHEA 0.001 % ou contrôles non traités, pendant 4 h • Stimulation : ajout de PMA (ou non, contrôles) et culture pendant 6 h. Produits (selon viabilités sur fibroblastes): • A.G. B 0:04 %; • A.G. C2 0.04 %; • A.G. G 0.04 %; • DHEA 10 µg/ml
Les données brutes de comptage ont été transférées et traitées sous le logiciel PRISM® (Graph Pad Software).
Les comparaisons inter-groupes ont été réalisées par analyse de variance (ANOVA) à l'aide du test de comparaison multiple de Dunnett.

[1] = Fibroblast, ganoderic acid 0,04%, normal human fibroblasts, +PMA, 6h
[2] = ganoderic acid 0,04%, normal human fibroblasts, 6h, Témoin + PMA 17,89

Row | SMILES | inhibition at 0.04 % (Fibroblast, 6 h) | activity at 0.04 % [1] | MMP1 (ng/ml) [2] | effets anti-vieillissement (régulation MMP1) (result in words, comparison between ganoderic acids B, C2 and G at 0.04 %) | MMP1 (ng/ml) (DHEA 0,001%, normal human fibroblasts, 6h, Témoin + PMA 10,54) | % témoin +PMA (DHEA 0,001%, normal human fibroblasts, +PMA, 6h, 360 min) | activity at 0.001 % (Fibroblast, 6 h, read-out: % témoin +PMA, DHEA 0,001%, normal human fibroblasts, +PMA, 6h)
1 | CC(CC(=O)CC(C)C1CC(=O)C2(C)C3=C(C(=O)CC12C)C1(C)CCC(O)C(C)(C)C1CC3O)C(=O)O (stereo not shown) [A. ganodérique B, Acide Ganodérique B] | ~30% | 76% | 13,52 ng/ml | – | – | – | –
2 | CC(CC(=O)CC(C)C1CC(O)C2(C)C3=C(C(=O)CC12C)C1(C)CCC(O)C(C)(C)C1CC3O)C(=O)O (stereo not shown) [A. ganodérique C2, Acide Ganodérique C2] | ~30% | 72% | 12,95 ng/ml | – | – | – | –
3 | CC(CC(=O)CC(C)C1CC(=O)C2(C)C3=C(C(=O)C(O)C12C)C1(C)CCC(O)C(C)(C)C1CC3O)C(=O)O (stereo not shown) [A. ganodérique G, Acide Ganodérique G] | > 40% | 57% | 10,15 ng/ml | activité supérieure aux deux autres acides ganodériques | – | – | –
4 | C[C@]12CC[C@H](O)CC1=CC[C@@H]1[C@@H]2CC[C@]2(C)C(=O)CC[C@@H]12 [DHEA, DéHydroEpiAndrostérone, reference compound] | – | – | – | – | 6,38 ng/ml | 61% | 60%

— patent EP1434565B1, “USE OF GANODERIC ACIDS AS COSMETIC AGENTS” (YVES SAINT LAURENT PARFUMS, (Société Anonyme), priority 2001, dated 2003)
